Results: US20080071190A1, “Timing of Ovulation Based on Vaginal Ph” (priority 2004, published 2008)

Experiments:
[1] = system: hECE cells (Human Ectocervical-Vaginal Epithelial Cells); assay: Determinations of extracellular pH (pHo) in luminal and contra-luminal solutions of hECE cells cultured on filters; format: cell-based
Procedure: Referring to FIG. 4A, hECE cells or Human Endocervical Cells were plated on Anocell filters (Anocel™-10, Oxon, UK, obtained through Sigma Chemicals, St. Louis, Mo.), which are ceramic-base filters, pore size of 0.02 μm width, 50 μm depth, and surface area of 0.6 cm^2. Filters 300 and 302 were coated with 4 μg/cm^2 collagen type IV and incubated at 37° C. overnight. The remaining collagen solution was aspirated and the filter was dried at 37° C. Before plating, filters 300 were rinsed 3 times with Hanks' Balanced Salt Solution. Cells were plated either on the upper surface 302 of one filter 300 (for determinations of luminal pHo) or on the bottom surface 304 of the other filter 300 (for determinations of the contra-luminal pHo) at 3·10^5 cells/cm^2. By plating at this relatively high density the cultures became confluent within 12 hours after plating.
Plates containing the filters were placed in a tissue culture incubator (37° C.), and pHo changes in the luminal and contra-luminal solutions were determined using AMANI-1000 microcombination pH electrodes 306 (Harvard Apparatus, Holliston, Mass., obtained through Genomics Solutions, Ann Harbor, Mich.). The AMANI-1000 pH sensor (stored in pH 7.0) is based on metal-metal oxide pH measurements and the pH sensitive layer is immobilized on plastic. The reference electrode employs an Ag/AgCl in 3.4 M KCl reference electrode, and the reference electrode junction is leak-free ensuring no leaks of KCl out of the reference electrode. The design of the pH electrodes 306 enabled their use for the purpose of the present experiments: tip diameter of 1 mm, depth of immersion 1 mm, and response time of less than 5 sec.
Electrodes 306 attached to a stand were held stable with the tip immersed in the solution within the upper compartment of the filter to a depth of about 2 mm avoiding direct contact between the electrode tip and the cultured cells. The electrodes were connected directly to a pH meter 310 (e.g., Accumet pH meter 910) (Fisher Scientific, Suwanee Ga.). After stabilization, the luminal and contraluminal solutions were gently aspirated using glass pipette, and replaced with fresh warmed (37° C.) Basic Salt Solution containing (in mM) NaCl (140), KCl (5), MgCl2 (1), CaCl2 (1), glucose (10), and 0.1% bovine serum albumin, pH 7.4. The volumes in the luminal and contraluminal compartments were 150 μl and 500 μl, respectively. Determinations of changes in pHo were made at time 0, and at 5 min intervals thereafter for up to 30 min.
To remove intracellular estrogens cells were grown in steroid-free medium as described. This procedure involved shifting cells on filters for three days prior to pHo assays to a medium composed of phenol-red-deficient (DMEM)/Ham's F12 or (Sigma Chemicals, St. Louis, Mo.) containing 8% heat inactivated fetal bovine serum that was previously treated with charcoal to remove steroids. Preparation of charcoal-treated serum was described; briefly, dextran-coated charcoal (Sigma Chemicals, St. Louis, Mo.) was dissolved at 8% in 0.15 M NaCl, autoclaved, mixed by stirring, spun and the pellet was resuspended as 1 gm/1.25 ml in H2O. Fetal bovine serum (Hyclone, Logan, Utah) was mixed with the activated charcoal-dextran at 20:1 (Vol:Vol) and incubated for 45 min at 55° C. At the completion of incubation the mixture was spun twice at 800 g for 20 min and the supernatant (serum) was decanted and collected. For experiments, cells were shifted to steroid-free medium for 3 days; alternatively, cells were shifted to the steroid-free medium for 24 hrs and treated with 17β-estradiol for two additional days.

[2] = system: Human Endocervical Cells; assay: Determinations of extracellular pH (pHo) in luminal and contra-luminal solutions of Human Endocervical Cells cultured on filters; format: cell-based; details: steroid-free medium and treatment with 10 nM estradiol, no effect
Procedure: Primary cultures of Human Endocervical Cells were obtained through Clonetics (Walkersville, Md.). Cells chosen for experiments were those obtained from tissues of two women reported as HPV negative, and the cultured Endocervical Cells were tested for mycoplasma. Primary Endocervical cultures were grown and subcultured into second passage using Clonetics proprietary Endocervical Medium (supplied with the cells), and thereafter maintained in hECE culture medium. Cells were characterized as epithelial cells based on typical morphology of a monolayered epithelium; the expression of involucrin; lack of expression of vimentin; and expression of tight junctions (not shown). […] The cells were defined as phenotypically endocervical (in contrast to ectocervical/vaginal) based on expression of apical villi, the abundant expression of cytokeratins 18/19, and minimal expression of cytokeratins 4/5 and 13. Both hECE cells and the Human Endocervical Cells (not shown) expressed functional estrogen receptors. […]
Plates containing the filters were placed in a tissue culture incubator (37° C.), and pHo changes in the luminal and contra-luminal solutions were determined using AMANI-1000 microcombination pH electrodes 306 (Harvard Apparatus, Holliston, Mass., obtained through Genomics Solutions, Ann Harbor, Mich.). […]

[3] = system: hECE cells; assay: Cell-vitality staining (MTT assay); format: cell-based, human; details: Steroid-Free Medium + substance, means ±SD, 3 to 4 repeats
Procedure: Cell-vitality staining was done using the 3-[4,5-dimethylthiazol-2-yl]-2,5-diphenyl tetrazolium bromide (MTT) assay. MTT serves as a substrate for mitochondrial dehydrogenases, and only viable functional mitochondria are capable of cleaving MTT to generate the colored product formazan. MTT solution was prepared by dissolving MTT at a concentration of 5 mg/ml in phosphate-buffered saline (PBS) composed of (mM) NaCl (137), KCl (2.68), Na2HPO4 (10), KH2PO4 (1.76), pH 7.4, and filtering the solution through Millipore filter. Following treatments/assays, cells on filters were washed with fresh and warm (37° C.) PBS and incubated for 60 min at 37° C. in MTT solution. At the completion of incubation, cells were washed with PBS, and solubilized in isopropanol containing 0.1 M HCl plus 1% Triton X-100. Lysates were mixed by pipetting to dissolve the reduced MTT crystals (during which time the colorless solution turned purple) and were spinned at 10,000 g for 5 min. The solubilized formazan was measured by determining absorption at 570 nm. Background absorbance at 690 nm was subtracted for each sample, and values were normalized to OD570 (optic density) of control unperturbed cells.

## C[C@]12CC[C@@H]3c4ccc(O)cc4CC[C@H]3[C@@H]1CC[C@@H]2O [17β-estradiol]
[1]; Homo sapiens, Epithelial cell, hECE cells grown in steroid-free medium, dose response FIG. 8B, read-out: EC50 of decrease in luminal pHo
  EC50: ~0.5 nM
[1]; hECE cells in steroid-free medium treated with 10 nM 17β-estradiol for two days, 30 min, steroid-free medium alone 7.11±0.02
  luminal pHo: 7.03±0.02
[1]; hECE cells in steroid-free medium, 0.1 nM 17β-estradiol, decreased from 7.26±0.03
  luminal pHo: 7.13±0.03
[1]; hECE cells in steroid-free medium, 1 nM
  effect on luminal pHo (dose response): reached near saturation
[1]; hECE cells in steroid-free medium, 100 nM
  effect on luminal pHo (dose response): no additional effect
[1]; hECE cells, steroid-free medium and treatment with 10 nM estradiol, no effect
  contra-luminal pHo: around 7.25
[2]
  contra-luminal pHo or luminal pHo: around 7.25
[3]; Baseline
  hECE cell vitality (MTT staining normalized to OD570 of control unperturbed cells), Baseline: 96 ± 3%
[3]; after 30 min pHo measurement
  hECE cell vitality (MTT staining normalized to OD570 of control unperturbed cells), 30 min pHo: 94 ± 4%
